Tests used:
[1] = target: T1, Alpha-2A adrenergic receptor [16-465] (Rattus norvegicus, UniProt P22909)
T1 construct: 16-465
T1 sequence (P22909 whole entry): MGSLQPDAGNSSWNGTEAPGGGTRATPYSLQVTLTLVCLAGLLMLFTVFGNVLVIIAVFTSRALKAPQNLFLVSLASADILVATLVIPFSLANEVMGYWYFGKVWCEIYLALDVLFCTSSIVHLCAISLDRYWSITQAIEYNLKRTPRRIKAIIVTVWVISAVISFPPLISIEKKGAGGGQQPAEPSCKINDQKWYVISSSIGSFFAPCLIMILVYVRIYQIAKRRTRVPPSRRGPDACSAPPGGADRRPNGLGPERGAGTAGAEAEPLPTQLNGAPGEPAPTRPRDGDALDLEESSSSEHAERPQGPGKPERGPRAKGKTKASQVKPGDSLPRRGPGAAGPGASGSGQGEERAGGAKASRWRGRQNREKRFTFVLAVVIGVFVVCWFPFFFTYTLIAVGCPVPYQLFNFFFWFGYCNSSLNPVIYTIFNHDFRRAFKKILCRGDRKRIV

[2] = target: T2, Alpha-2C adrenergic receptor (Rattus norvegicus, UniProt P22086)
T2 sequence (P22086 whole entry): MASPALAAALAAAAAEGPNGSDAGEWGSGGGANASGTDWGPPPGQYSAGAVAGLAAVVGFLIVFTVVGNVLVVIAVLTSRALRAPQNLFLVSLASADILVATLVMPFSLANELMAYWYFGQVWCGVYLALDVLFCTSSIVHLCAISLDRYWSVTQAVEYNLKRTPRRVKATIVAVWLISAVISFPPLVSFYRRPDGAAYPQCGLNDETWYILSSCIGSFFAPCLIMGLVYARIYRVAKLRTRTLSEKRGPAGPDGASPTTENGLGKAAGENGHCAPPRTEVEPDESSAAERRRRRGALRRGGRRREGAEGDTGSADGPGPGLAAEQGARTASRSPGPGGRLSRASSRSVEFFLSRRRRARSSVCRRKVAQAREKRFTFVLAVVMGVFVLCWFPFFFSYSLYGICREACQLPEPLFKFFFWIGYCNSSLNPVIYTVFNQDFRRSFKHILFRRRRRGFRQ

A Ki [1] of 3840 nM and a Ki [2] of 13.7 nM were found for `CCC(=O)Nc1c(C)cc(C(=O)N2CCC(N(C)CCc3ccccc3)CC2)cc1C` [NSC_219019] in this work.

From BindingDB's records for PubMed 11602678 (Otsuka Maryland Research Institute, 2001)
